Columns and labels:
Experiment in all cases: relative viability (nuclei count vs DMSO), 5 days (fraction); higher = more cells survive
Omipalisib = compound: COc1ncc(-c2ccc3nccc(-c4ccnnc4)c3c2)cc1NS(=O)(=O)c1ccc(F)cc1F [Omipalisib]
Method in brief: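 A plate was accepted only when its control CV was below 25% and the cells had doubled at least once. Viability is defined from nuclear counts as treated wells divided by vehicle wells, with the median taken across plates. That median covers lung cancer cell lines grown in 1536-well plates, dosed by pinning at five √10-spaced library-drug concentrations, and counted in MetaXpress from 4× Hoechst images after 5 days.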

Omipalisib + Olaparib = compound: COc1ncc(-c2ccc3nccc(-c4ccnnc4)c3c2)cc1NS(=O)(=O)c1ccc(F)cc1F [Omipalisib] + O=C(c1cc(Cc2n[nH]c(=O)c3ccccc23)ccc1F)N1CCN(C(=O)C2CC2)CC1 [Olaparib] (partner 8 µM)
Method in brief: (§1)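 Relative viability divides the nuclei count in treated wells by that in vehicle wells. Lung cancer cell lines were seeded in 1536-well plates, dosed by pin tool the next day, and fixed and stained after 5 days in one step with final 0.05% Triton X-100, 1% formaldehyde and 1 ug/ml Hoechst. Dosing was a single drug or a fixed anchor-drug dose plus five library-drug doses (not always all listed) in √10 steps, and values are medians of duplicate plates imaged at 4×.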

Omipalisib + Crizotinib = compound: COc1ncc(-c2ccc3nccc(-c4ccnnc4)c3c2)cc1NS(=O)(=O)c1ccc(F)cc1F [Omipalisib] + C[C@@H](Oc1cc(-c2cnn(C3CCNCC3)c2)cnc1N)c1c(Cl)ccc(F)c1Cl [Crizotinib] (partner 1 µM)
Method in brief: as §1

Omipalisib + Phenformin = compound: COc1ncc(-c2ccc3nccc(-c4ccnnc4)c3c2)cc1NS(=O)(=O)c1ccc(F)cc1F [Omipalisib] + N=C(N)NC(=N)NCCc1ccccc1 [Phenformin] (partner 250 µM)
Method in brief: as §1

Omipalisib + Lapatinib = compound: COc1ncc(-c2ccc3nccc(-c4ccnnc4)c3c2)cc1NS(=O)(=O)c1ccc(F)cc1F [Omipalisib] + CS(=O)(=O)CCNCc1ccc(-c2ccc3ncnc(Nc4ccc(OCc5cccc(F)c5)c(Cl)c4)c3c2)o1 [Lapatinib] (partner 2 µM)
Method in brief: as §1

Omipalisib + Linsitinib = compound: COc1ncc(-c2ccc3nccc(-c4ccnnc4)c3c2)cc1NS(=O)(=O)c1ccc(F)cc1F [Omipalisib] + C[C@]1(O)C[C@@H](c2nc(-c3ccc4ccc(-c5ccccc5)nc4c3)c3c(N)nccn32)C1 [Linsitinib] (partner 1 µM)
Method in brief: as §1

Omipalisib + Pictilisib = compound: COc1ncc(-c2ccc3nccc(-c4ccnnc4)c3c2)cc1NS(=O)(=O)c1ccc(F)cc1F [Omipalisib] + CS(=O)(=O)N1CCN(Cc2cc3nc(-c4cccc5[nH]ncc45)nc(N4CCOCC4)c3s2)CC1 [Pictilisib] (partner 1 µM)
Method in brief: as §1

Omipalisib + Decitabine = compound: COc1ncc(-c2ccc3nccc(-c4ccnnc4)c3c2)cc1NS(=O)(=O)c1ccc(F)cc1F [Omipalisib] + Nc1ncn([C@H]2C[C@H](O)[C@@H](CO)O2)c(=O)n1 [Decitabine] (partner 2 µM)
Method in brief: as §1

Omipalisib + Alpelisib = compound: COc1ncc(-c2ccc3nccc(-c4ccnnc4)c3c2)cc1NS(=O)(=O)c1ccc(F)cc1F [Omipalisib] + Cc1nc(NC(=O)N2CCC[C@H]2C(N)=O)sc1-c1ccnc(C(C)(C)C(F)(F)F)c1 [Alpelisib] (partner 2 µM)
Method in brief: as §1

Omipalisib + Foretinib = compound: COc1ncc(-c2ccc3nccc(-c4ccnnc4)c3c2)cc1NS(=O)(=O)c1ccc(F)cc1F [Omipalisib] + COc1cc2c(Oc3ccc(NC(=O)C4(C(=O)Nc5ccc(F)cc5)CC4)cc3F)ccnc2cc1OCCCN1CCOCC1 [Foretinib] (partner 0.25 µM)
Method in brief: as §1

Omipalisib + Navitoclax = compound: COc1ncc(-c2ccc3nccc(-c4ccnnc4)c3c2)cc1NS(=O)(=O)c1ccc(F)cc1F [Omipalisib] + CC1(C)CCC(c2ccc(Cl)cc2)=C(CN2CCN(c3ccc(C(=O)NS(=O)(=O)c4ccc(N[C@H](CCN5CCOCC5)CSc5ccccc5)c(S(=O)(=O)C(F)(F)F)c4)cc3)CC2)C1 [Navitoclax] (partner 0.5 µM)
Method in brief: as §1

Omipalisib + AZD7762 = compound: COc1ncc(-c2ccc3nccc(-c4ccnnc4)c3c2)cc1NS(=O)(=O)c1ccc(F)cc1F [Omipalisib] + NC(=O)Nc1cc(-c2cccc(F)c2)sc1C(=O)N[C@H]1CCCNC1 [AZD7762] (partner 0.2 µM)
Method in brief: as §1

Omipalisib + Bortezomib = compound: COc1ncc(-c2ccc3nccc(-c4ccnnc4)c3c2)cc1NS(=O)(=O)c1ccc(F)cc1F [Omipalisib] + CC(C)C[C@H](NC(=O)[C@H](Cc1ccccc1)NC(=O)c1cnccn1)B(O)O [Bortezomib] (partner 0.002 µM)
Method in brief: as §1

Cell Line | relative viability (Omipalisib; 0.0003 µM) | relative viability (Omipalisib; 0.003 µM) | relative viability (Omipalisib; 0.03 µM) | relative viability (Omipalisib + Olaparib; first compound 0.0003 µM) | relative viability (Omipalisib + Olaparib; first compound 0.003 µM) | relative viability (Omipalisib + Olaparib; first compound 0.03 µM) | relative viability (Omipalisib + Crizotinib; first compound 0.0003 µM) | relative viability (Omipalisib + Crizotinib; first compound 0.003 µM) | relative viability (Omipalisib + Crizotinib; first compound 0.03 µM) | relative viability (Omipalisib + Phenformin; first compound 0.0003 µM) | relative viability (Omipalisib + Phenformin; first compound 0.003 µM) | relative viability (Omipalisib + Phenformin; first compound 0.03 µM) | relative viability (Omipalisib + Lapatinib; first compound 0.0003 µM) | relative viability (Omipalisib + Lapatinib; first compound 0.003 µM) | relative viability (Omipalisib + Lapatinib; first compound 0.03 µM) | relative viability (Omipalisib + Linsitinib; first compound 0.0003 µM) | relative viability (Omipalisib + Linsitinib; first compound 0.003 µM) | relative viability (Omipalisib + Linsitinib; first compound 0.03 µM) | relative viability (Omipalisib + Pictilisib; first compound 0.0003 µM) | relative viability (Omipalisib + Pictilisib; first compound 0.003 µM) | relative viability (Omipalisib + Pictilisib; first compound 0.03 µM) | relative viability (Omipalisib + Decitabine; first compound 0.0003 µM) | relative viability (Omipalisib + Decitabine; first compound 0.003 µM) | relative viability (Omipalisib + Decitabine; first compound 0.03 µM) | relative viability (Omipalisib + Alpelisib; first compound 0.0003 µM) | relative viability (Omipalisib + Alpelisib; first compound 0.003 µM) | relative viability (Omipalisib + Alpelisib; first compound 0.03 µM) | relative viability (Omipalisib + Foretinib; first compound 0.0003 µM) | relative viability (Omipalisib + Foretinib; first compound 0.003 µM) | relative viability (Omipalisib + Foretinib; first compound 0.03 µM) | relative viability (Omipalisib + Navitoclax; first compound 0.0003 µM) | relative viability (Omipalisib + Navitoclax; first compound 0.003 µM) | relative viability (Omipalisib + Navitoclax; first compound 0.03 µM) | relative viability (Omipalisib + AZD7762; first compound 0.0003 µM) | relative viability (Omipalisib + AZD7762; first compound 0.003 µM) | relative viability (Omipalisib + AZD7762; first compound 0.03 µM) | relative viability (Omipalisib + Bortezomib; first compound 0.0003 µM) | relative viability (Omipalisib + Bortezomib; first compound 0.003 µM) | relative viability (Omipalisib + Bortezomib; first compound 0.03 µM)
A549 | 0.923 | 0.625 | 0.323 | 0.206 | 0.174 | 0.0441 | 0.64 | 0.531 | 0.139 | 0.157 | 0.113 | 0.0802 | 0.912 | 0.715 | 0.227 | 0.438 | 0.421 | 0.218 | 0.457 | 0.454 | 0.254 | 0.304 | 0.224 | 0.176 | 0.665 | 0.55 | 0.179 | 0.892 | 0.838 | 0.319 | 1.07 | 0.91 | 0.437 |  |  |  |  |  | 
NCI-H1703 | 0.777 | 0.572 | 0.234 | 0.28 | 0.279 | 0.214 | 0.707 | 0.418 | 0.128 |  |  |  | 0.879 | 0.715 | 0.293 | 0.596 | 0.298 | 0.171 | 0.218 | 0.238 | 0.202 |  |  |  | 0.428 | 0.273 | 0.179 | 0.314 | 0.37 | 0.301 | 0.713 | 0.651 | 0.24 | 0.152 | 0.115 | 0.111 | 0.323 | 0.268 | 0.153

— the supplement of paper PMC10307832
